Reference: ChEMBL document CHEMBL1201862, “PubChem BioAssay data set” (2004)
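A five-concentration, 48-hour dose response in 96-well plates underlies each endpoint, interpolated linearly between surrounding concentrations. GI50 is the concentration that inhibits growth by half.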 Active and inactive are the calls of the source. No stated cut-off is given here; in the data, active = GI50 up to about 1.1 µM and inactive = higher.

Tests used:
Assay in all cases: NCI tumour cell line growth inhibition, 48 h
OVCAR-3 = system: OVCAR-3
CAKI-1 = system: CAKI-1
MCF7 = system: MCF7
HCT-15 = system: HCT-15
MDA-MB-435 = system: MDA-MB-435
OVCAR-5 = system: OVCAR-5
SF-295 = system: SF-295
ACHN = system: ACHN
A498 = system: A498
UO-31 = system: UO-31
SNB-75 = system: SNB-75
HT-29 = system: HT-29
SK-MEL-5 = system: SK-MEL-5
786-0 = system: 786-0
T47D = system: T47D
SW-620 = system: SW-620
PC-3 = system: PC-3
NCI/ADR-RES = system: NCI/ADR-RES
DU-145 = system: DU-145

SMILES | GI50 (OVCAR-3) | GI50 (CAKI-1) | GI50 (MCF7) | GI50 (HCT-15) [µM] | GI50 (MDA-MB-435) | GI50 (OVCAR-5) | GI50 (SF-295) | GI50 (ACHN) | GI50 (A498) | GI50 (UO-31) | GI50 (SNB-75) | GI50 (HT-29) | GI50 (SK-MEL-5) | GI50 (786-0) | GI50 (T47D) | GI50 (SW-620) | GI50 (PC-3) | GI50 (NCI/ADR-RES) | GI50 (DU-145)
O=[N+]([O-])c1cc2no[n+]([O-])c2cc1N1CCCCC1 | 1.92 µM (inactive) | 3.35 µM (inactive) | 1.95 µM (inactive) | 3.21 | 2.87 µM (inactive) | 8.39 µM (inactive) | 17.4 µM (inactive) | 2.58 µM (inactive) | 17.9 µM (inactive) | 2.07 µM (inactive) | 2.39 µM (inactive) | 1.76 µM (inactive) | 15.3 µM (inactive) | 1.29 µM (inactive) | 1.39 µM (inactive) | 1.97 µM (inactive) | 2.16 µM (inactive) | 3.15 µM (inactive) | 2.45 µM (inactive)
COCO[C@@H]1C[C@H]2C(=O)Nc3ccccc3C(=O)N2C1 |  | 36 µM (inactive) | 54.1 µM (inactive) | > 100 | 53.7 µM (inactive) | 61.5 µM (inactive) | 30.8 µM (inactive) | 50.6 µM (inactive) | 38.5 µM (inactive) | 27 µM (inactive) | 45.3 µM (inactive) | 85.3 µM (inactive) | 24.1 µM (inactive) | > 100 µM (inactive) | 69.2 µM (inactive) | 50.7 µM (inactive) | 43.8 µM (inactive) | 79.1 µM (inactive) | 48.8 µM (inactive)
Cc1cc(C)n(CN(CCCCO)Cn2nc(C)cc2C)n1 | 27.9 µM (inactive) | 34.4 µM (inactive) | 26.8 µM (inactive) | 17.5 | 19.4 µM (inactive) | 23.2 µM (inactive) | > 100 µM (inactive) | 17.5 µM (inactive) | > 100 µM (inactive) | 27.7 µM (inactive) |  | 17.9 µM (inactive) | 34.1 µM (inactive) | 14.8 µM (inactive) | 25.6 µM (inactive) | 21.7 µM (inactive) | 20.2 µM (inactive) | 18.2 µM (inactive) | 24.8 µM (inactive)
COC(CC1(CCNc2ccccc2)C(=O)N(COCC[Si](C)(C)C)c2ccccc21)OC (stereo unspecified) | 15.6 µM (inactive) | 26.4 µM (inactive) | 10.4 µM (inactive) | 16 | 13.3 µM (inactive) | 16.6 µM (inactive) | 16.6 µM (inactive) | 17.9 µM (inactive) | 21.1 µM (inactive) | 13.9 µM (inactive) | 4.46 µM (inactive) | 16.4 µM (inactive) | 4.97 µM (inactive) | 6.25 µM (inactive) | 20.3 µM (inactive) | 18.9 µM (inactive) | 11.8 µM (inactive) | 17.1 µM (inactive) | 23.6 µM (inactive)
CN(C)S(=O)(=O)/N=C/c1cccc(/C=N/S(=O)(=O)N(C)C)c1 | > 100 µM (inactive) | > 100 µM (inactive) | 46.7 µM (inactive) | > 100 | 44.8 µM (inactive) | > 100 µM (inactive) | 0.728 µM (active) | > 100 µM (inactive) | > 100 µM (inactive) | > 100 µM (inactive) | 22.9 µM (inactive) |  | 55.1 µM (inactive) | > 100 µM (inactive) | > 100 µM (inactive) | 64 µM (inactive) | > 100 µM (inactive) | 81.7 µM (inactive) | > 100 µM (inactive)
COc1ccc(CCN2CCOCC2)cc1 | 41.8 µM (inactive) | > 100 µM (inactive) | > 100 µM (inactive) | > 100 | > 100 µM (inactive) | > 100 µM (inactive) | > 100 µM (inactive) | > 100 µM (inactive) | > 100 µM (inactive) | > 100 µM (inactive) |  | > 100 µM (inactive) | > 100 µM (inactive) | > 100 µM (inactive) | > 100 µM (inactive) | > 100 µM (inactive) | > 100 µM (inactive) | > 100 µM (inactive) | > 100 µM (inactive)
COc1cc(COC(=O)N[C@H](C(=O)O)C(C)(C)C)c([N+](=O)[O-])cc1OC | > 100 µM (inactive) |  | > 100 µM (inactive) | > 100 | > 100 µM (inactive) | > 100 µM (inactive) | > 100 µM (inactive) | > 100 µM (inactive) | > 100 µM (inactive) | > 100 µM (inactive) | > 100 µM (inactive) | > 100 µM (inactive) | > 100 µM (inactive) | > 100 µM (inactive) | > 100 µM (inactive) | > 100 µM (inactive) | > 100 µM (inactive) | > 100 µM (inactive) | > 100 µM (inactive)
O=C(NNC(=O)c1ccccc1O)c1cccs1 | 23.7 µM (inactive) | 79.4 µM (inactive) | 52.2 µM (inactive) | 47.8 | > 100 µM (inactive) | 45 µM (inactive) | 34.2 µM (inactive) |  | > 100 µM (inactive) | 50.1 µM (inactive) | 28.3 µM (inactive) | 33.3 µM (inactive) | > 100 µM (inactive) | > 100 µM (inactive) | > 100 µM (inactive) | 61.5 µM (inactive) | 47.5 µM (inactive) | 27.8 µM (inactive) | > 100 µM (inactive)
